Reference: PubChem BioAssay AID179 (DTP/NCI, 2004)
The source made the active and inactive calls.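 Rule for the calls: active = compounds giving half or more protection of infected cells from virus-caused growth loss, again on retest; inactive = the rest.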

Test system: CEM cells HIV-1 protection, formazan growth assay
Assay: NCI AIDS Antiviral Assay
Conditions: for IC50: measured here: growth of uninfected CEM cells
Method in brief: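 Soluble formazan readout of cell growth; CEM cells ± HIV-1; 5 drug concs. ≥50% protection → retest; ≥50% again = moderately active; reproducible 100% = confirmed active.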

Compound	EC50	IC50	outcome
CSc1nc(C)c(Br)c(=O)n1C1OC(COC(C)=O)C(OC(C)=O)C(OC(C)=O)C1OC(C)=O (configuration not stated)	> 200 µM	> 200 µM	–
CC(=O)O[C@]12CCC[C@H]1C1(O)C(O)CCC[C@H]12 (some centres not stated)	> 200 µM	> 200 µM	–
NC(=O)N/N=C1\CC2C3CC4C2C4C13 (configuration not stated)	> 200 µM	> 200 µM	–
CNC(=O)OCn1cnc(Cl)c1Cl	> 200 µM	> 200 µM	–
Cc1cc2c(=O)cc(-c3ccncc3)oc2c(C(=O)O)c1C	> 851 µM	> 851 µM	–
COc1cc(O)c(/C=N/N=C(\N)NO)c(OC)c1	> 200 µM	44.7 µM	–
CC(=O)C1CC[C@@H](C)[C@@H]2CC[C@@]3(C)OO[C@@]12[C@H](OC=O)O3 (some centres not stated)	> 200 µM	27.5 µM	–
CCC1(c2ccc3ccccc3c2)Oc2ccccc2-n2cccc2C1=O (configuration not stated)	1.17 µM	91.2 µM	–
COC(=O)C(=O)C1(CCC(C)=O)c2ccccc2-c2c(C)ccc(C)c21 (configuration not stated)	–	–	inactive
O=[N+]([O-])c1cccc2nc3ccccc3c(NCCCn3ccnc3[N+](=O)[O-])c12	> 0.2 µM	0.0457 µM	–
CCOC(=O)C(=Cc1cccc(C#N)c1)C(=O)OCC	> 132 µM	8.51 µM	–
CCN(Cc1cccc(S(=O)(=O)[O-])c1)c1ccc(C(=C2C=CC(=[N+](CC)Cc3cccc(S(=O)(=O)O)c3)C=C2)c2ccccc2)cc1	148 µM	186 µM	–
CCCC(=O)OC1CN2CC[C@H](O)C2C(O)[C@@H]1O (some centres not stated)	2.29 µM	955 µM	–
CCOC(=O)C(Cc1cccc2ccccc12)S(=O)(=O)c1ccc(C)cc1 (configuration not stated)	> 66.1 µM	18.6 µM	–
Cn1c(=O)c2ccc(-c3ccc(Br)cc3)nc2n(C)c1=O	–	–	inactive
Cc1cc(C)nc(NS(=O)(=O)c2ccc(NC(=O)NC(F)(F)F)cc2)n1	> 200 µM	> 200 µM	–
O=C(Nc1ccc(Cl)c(Cl)c1)n1ncc2ccc([N+](=O)[O-])cc21	> 200 µM	170 µM	–
N=c1nc(N)n2c(N)nc(=N)n12	> 155 µM	> 155 µM	–
COc1cc2c(cc1OCc1ccccc1)CNCC2	> 794 µM	145 µM	–
Cc1ccc(Cc2n[nH]c(=O)n2/N=C\CC/C=N\n2c(Cc3ccc(C)cc3)n[nH]c2=O)cc1	> 200 µM	120 µM	–
CCOC(=O)C(C(=O)OCC)c1ccc([N+](=O)[O-])o1	> 132 µM	1.86 µM	–

Compound	EC50	IC50	outcome
CN(N=O)C(=O)ON1C(=O)CCC1=O	> 1230 µM	107 µM	–
CCOC(=O)C1C/C(C)=C(/C)SCCCS1 (configuration not stated)	> 200 µM	45.7 µM	–
N#Cc1nc(NC(=O)c2ccccc2C(=O)O)c(C#N)[nH]1	> 200 µM	> 200 µM	–
CCCCCCCCCCCCCCCCCCSCC12c3ccccc3C(c3ccccc31)C(COS(=O)(=O)O)C2COS(=O)(=O)O (configuration not stated)	> 100 µM	64.6 µM	–
CC12CCC3C(CCC4=CC(=O)C=CC43C)C1CC(O)C(=O)O2 (configuration not stated)	> 200 µM	> 200 µM	–
C/C(CC(=O)Nc1ccc(NC(=O)/C(C)=N/NS(=O)(=O)c2ccc(C)cc2)cc1)=N\NS(=O)(=O)c1ccc(C)cc1	> 158 µM	> 158 µM	–
O=C1c2ccncc2C(=O)c2c(O)ccc(O)c21	> 6.03 µM	3.24 µM	–
CC1=CCCC(C)C1(C)CC/C(C)=C/CC/C(C)=C/CS(=O)(=O)CCN=C(N)N (configuration not stated)	> 61.7 µM	10.7 µM	–
O=c1c2ccccc2oc2cc(Br)ccc12	> 26.3 µM	> 26.3 µM	–
CCOC(=O)c1ccc(CSc2ccccc2C(=O)O)c([N+](=O)[O-])c1	> 14.5 µM	> 14.5 µM	–
CC(=O)OC(C(=O)C(O)C(C)C)C(C)C (configuration not stated)	> 832 µM	> 832 µM	–
COC(=O)c1ccccc1C1=C(O)C(=O)C(c2ccccc2C(=O)OC)=C(O)C1=O	> 63.1 µM	6.76 µM	–
COc1cc(Nc2nc3c(N)cc(C(F)(F)F)cc3nc2-c2ccccc2)cc(OC)c1OC	> 15.1 µM	> 15.1 µM	–
Cc1cccc(N2C(=O)C3c4[nH]c5ccccc5c4C4CCC(C(C)(C)C)CC4C3C2=O)c1C (configuration not stated)	> 200 µM	22.9 µM	–
Cc1cc2ccc3c(c2oc1=O)[C@@H](OC(=O)C12CCC(C)(C(=O)O1)C2(C)C)[C@@H](OC(=O)C12CCC(C)(C(=O)O1)C2(C)C)C(C)(C)O3 (some centres not stated)	0.209 µM	18.6 µM	–
CNC(=O)NC1ON=C(c2ccccc2)C1C(=O)NC (configuration not stated)	> 200 µM	182 µM	–
Cc1cc(-c2c(Br)cc(C(=O)O)n2C)on1	> 200 µM	> 200 µM	–
CCCCCCCCCCC(c1cc(Cl)c(OC)c(C(=O)OC)c1)c1cc(Cl)c(OC)c(C(=O)OC)c1	> 38.9 µM	> 38.9 µM	–
OCC(O)C(OC1OC(CO)C(O)C(O)C1O)c1nn(-c2ccc(Cl)cc2)c2nc3cc(Cl)ccc3nc12 (configuration not stated)	–	–	inactive
O=C1C2=C(C(c3ccccc3)=C1c1ccccc1)c1ccccc1C1(c3ccccc3)C2=C(O)C(c2ccccc2)=C1c1ccccc1 (configuration not stated)	–	–	inactive
CCOC(=O)Nc1cc2c(c(N)n1)N=C(c1ccc3ccccc3c1)CN2	> 200 µM	0.309 µM	–

Compound	EC50	IC50	outcome
O=C(O)/C=C/n1c2ccccc2c(=O)c2ccccc21	> 70.8 µM	> 70.8 µM	–
C=C1CC(C)(Cn2cnc3c(N)ncnc32)OC1=O (configuration not stated)	> 200 µM	11.2 µM	–
CCOC(=O)/C(C#N)=C\Sc1ccccc1	–	–	inactive
CN1CCC23c4c5ccc(O)c4OC2C(=NN=C2CCC4(O)C6Cc7ccc(O)c8c7C4(CCN6C)C2O8)CCC3(O)C1C5 (configuration not stated)	> 200 µM	105 µM	–
Cc1nnn[n-]1.N.N.N.N.N.[Cl-].[Co+3]	> 832 µM	> 832 µM	–
COc1cc2cccc(N=Cc3cccc(OC)c3OC(C)C)c2cc1OC	> 13.2 µM	> 13.2 µM	–
Cc1ccc(S(=O)(=O)NNCNC(=O)c2ccccc2)cc1	–	–	inactive
Cc1cc(C)n(C(C)(C(=O)Cc2ccccc2)n2nc(C)cc2C)n1	> 200 µM	> 200 µM	–
C=C1CN=C(Nc2ccc(F)cc2F)S1	> 200 µM	> 100 µM	–
N#C/C(=C\NC(=S)NCc1ccccc1)c1nc2ccccc2s1	> 200 µM	47.9 µM	–
O=C1CSC(/C(=C/c2ccccc2)c2nc3ccccc3[nH]2)=N1	21.9 µM	22.4 µM	–
CC1=C(C(=O)Nc2ccccc2C)C(c2ccc(C3C(C(=O)Nc4ccccc4C)=C(C)NC(C)=C3C(=O)Nc3ccccc3C)cc2)C(C(=O)Nc2ccccc2C)=C(C)N1	–	–	inactive
COC(=O)C(=O)C(C(=O)C(=O)Nc1ccccc1C(C)=O)c1nc2ccc(C(=O)c3ccccc3)cc2[nH]c1=O (configuration not stated)	> 93.3 µM	55 µM	–
CC(C)(C)c1ccc2c(c1)CNCCNCc1cc(C(C)(C)C)ccc1OCC1(CO2)COc2ccc(C(C)(C)C)cc2CNCCNCc2cc(C(C)(C)C)ccc2OC1	> 1.51 µM	0.219 µM	–
CCCNC(=O)N(C)C(=O)N1N=C(c2ccccc2)C1c1ccccc1 (configuration not stated)	4.57 µM	52.5 µM	–
O=C(O)/C=C/c1ccc([N+](=O)[O-])cc1	> 97.7 µM	> 97.7 µM	–
CN1CCCC2[C@@H]3CCC4c5nonc5CC[C@]4(C)C3CC[C@@]21C (some centres not stated)	> 55 µM	> 55 µM	–
N=c1c2c(ncn1N)CCN(Cc1ccccc1)C2	> 200 µM	30.9 µM	–
CCOP(=O)(O)CN1CCNCCN(CP(=O)(O)OCC)CCNCC1	> 100 µM	> 100 µM	–
COc1ccc(C(=O)N/N=C/c2c(C)n(C)n(-c3ccccc3)c2=O)cc1	> 200 µM	> 200 µM	–
CC(SC(C)C(=O)N/N=C/c1ccc(B(O)O)cc1)C(=O)N/N=C\c1ccc(B(O)O)cc1 (configuration not stated)	> 200 µM	> 200 µM	–

Compound	EC50	IC50	outcome
COCn1cnc2c(=O)n(-c3ccc(C)cc3)c(=S)n(-c3ccc(C)cc3)c21	> 200 µM	138 µM	–
O=C(Nc1ccccc1)c1cc2ccc(O)c(O)c2cn1	> 158 µM	8.32 µM	–
CC(/C=C/C1OC(=O)C=CC1C)=C\C(C)C/C=C/C(C)=C/C(C)C(=O)C(C)C(O)C(C)C/C(C)=C/C(=O)O (configuration not stated)	> 0.02 µM	0.00631 µM	–
N#CCCN(CCNc1ccccc1)C(=O)Nc1ccc(NC(=O)N(CCC#N)CCNc2ccccc2)cc1	> 200 µM	> 200 µM	–
NS(=O)(=O)c1cc2c(cc1Cl)NC(C(=O)NNC(=O)c1ccncc1)=NS2(=O)=O	> 77.6 µM	> 77.6 µM	–
CCCCCCCCCCCCC1=C(OC)C(=O)c2ccc(C)nc2C1=O	–	–	inactive
CN(C)CCNC(=O)c1cccc(NC(=O)c2ccccc2)c1[N+](=O)[O-]	> 200 µM	> 200 µM	–
COc1ccc([C@H]2CC(=O)C[C@H](c3ccc(OC)cc3OC)C23C(=O)c2ccccc2C3=O)c(OC)c1	> 200 µM	151 µM	–
N#Cc1c([N+](=O)[O-])cc(C(F)(F)F)cc1[N+](=O)[O-]	–	–	inactive
CCOC(=O)C(CC)c1cc2n(c(=O)c1C#N)CCC21OCCO1 (configuration not stated)	> 200 µM	> 200 µM	–
SC1N=C(c2ccccc2)N2C(S)N=C(c3ccccc3)N12 (configuration not stated)	> 200 µM	83.2 µM	–
Cc1ccc(N2C(=O)/C(=C3\Sc4c(nc(C)n(C)c4=O)N3c3ccccc3)SC2=S)cc1	> 3.02 µM	> 3.02 µM	–
Nc1c(S(=O)(=O)O)cc(S(=O)(=O)O)c2ccc(N=Nc3ccc(/C=C/c4ccc(N=Nc5ccc6c(S(=O)(=O)O)cc(S(=O)(=O)O)c(N)c6c5O)cc4S(=O)(=O)O)c(S(=O)(=O)O)c3)c(O)c12	10.2 µM	51.3 µM	–
CCC(=O)N(c1ccccc1)C(C)CN1CCC(O)(c2ccccc2)CC1 (configuration not stated)	> 200 µM	> 200 µM	–
C[S+](C)(=O)CCCS(=O)(=O)[O-]	> 200 µM	> 200 µM	–
COc1ccc(COCC[C@H](C)OC2OC(CO)C(O)C(O)C2O)cc1 (some centres not stated)	> 200 µM	> 200 µM	–
CN(C)P(=S)(CCPc1ccccc1)N(C)C (configuration not stated)	> 18.2 µM	> 18.2 µM	–
O=C(NCc1cccnc1)C1COc2cc(-c3cc(=O)c4ccccc4o3)ccc2O1 (configuration not stated)	–	–	inactive
CC1(c2ccccc2)Sc2ccccc2-n2cccc2C1=O (configuration not stated)	1.05 µM	3.8 µM	–
COc1ccc(/C=C(\C(C)=O)C(=O)Nc2ccccc2)cc1	> 17.8 µM	> 17.8 µM	–
C[C@]12CCNC(=O)C=C1CC[C@@H]1C2CC[C@@]2(C)C1CC[C@@H]2O (some centres not stated)	–	–	inactive
